Measurements as given in BindingDB's records for PubMed 10869375 (R. W. Johnson Pharmaceutical Research Institute, 2000).
“And” between values parts separate entries of the source, which are not always exact repeats. Equal entries are not always repeated.

What was measured:
Hrh3 protein = Hrh3 protein (Rattus norvegicus, UniProt Q5PPG3)
Histamine H3 receptor = Histamine H3 receptor (Homo sapiens, UniProt Q9Y5N1)
Histamine H3 receptor, sequence (Q9Y5N1 whole entry): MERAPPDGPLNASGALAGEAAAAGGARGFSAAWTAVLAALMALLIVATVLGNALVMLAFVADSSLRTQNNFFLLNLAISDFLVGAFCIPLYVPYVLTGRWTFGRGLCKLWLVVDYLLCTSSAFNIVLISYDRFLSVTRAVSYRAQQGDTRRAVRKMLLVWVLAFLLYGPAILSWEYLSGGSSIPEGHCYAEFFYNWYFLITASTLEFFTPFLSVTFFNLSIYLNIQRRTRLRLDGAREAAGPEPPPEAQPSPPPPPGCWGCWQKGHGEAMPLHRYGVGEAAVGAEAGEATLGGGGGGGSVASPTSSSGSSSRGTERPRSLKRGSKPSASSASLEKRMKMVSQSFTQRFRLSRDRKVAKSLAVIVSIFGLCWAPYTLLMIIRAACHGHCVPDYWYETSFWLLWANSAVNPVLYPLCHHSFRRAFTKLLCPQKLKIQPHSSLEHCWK

Hrh3 protein, sequence (Q5PPG3 whole entry): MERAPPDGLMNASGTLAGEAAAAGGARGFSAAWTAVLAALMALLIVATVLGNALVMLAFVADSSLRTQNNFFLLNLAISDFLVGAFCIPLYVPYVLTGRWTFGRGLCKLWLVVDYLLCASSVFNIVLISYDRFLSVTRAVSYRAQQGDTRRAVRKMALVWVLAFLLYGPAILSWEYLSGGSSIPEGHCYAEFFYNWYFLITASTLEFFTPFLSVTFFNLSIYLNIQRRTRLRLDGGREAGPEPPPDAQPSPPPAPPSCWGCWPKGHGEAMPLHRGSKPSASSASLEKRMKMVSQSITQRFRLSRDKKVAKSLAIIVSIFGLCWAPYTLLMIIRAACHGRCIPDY

Row | Structure (SMILES) | Ki (Hrh3 protein) | Ki (Histamine H3 receptor)
1 | S=C(NC1CCCCC1)N1CCC(c2cnc[nH]2)CC1 | 10.2 nM and 4.2 nM | 
2 | N=C(N)SCCc1cnc[nH]1 [2-(3H-imidazol-4-yl)ethylsulfanylmethanimidamide] | 0.2 nM | 0.6 nM
3 | c1nc(CC2CCNCC2)c[nH]1 [4-(1H-imidazol-4-ylmethyl)piperidine] | 0.5 nM and 1.4 nM | 1.6 nM
4 | CN1CCN(C2=c3ccccc3=Nc3ccc(Cl)cc3N2)CC1 [6-chloro-10-(4-methylpiperazin-1-yl)-2,9-diazatricyclo[9.4.0.0^{3,8}]pentadeca-1,3(8),4,6,10,12,14-heptaene] | 3000 nM and 1750 nM | 
5 | CNCCc1c[nH]cn1 [N(alpha)-Methylhistamine] | 1.2 nM and 1.5 nM | 2.4 nM
6 | NCCc1c[nH]cn1 [[3H]histamine] | 12 nM and 13.2 nM | 
